Measured values reported in publication PMC7195871 (ACS synthetic biology, 2018).

What was measured:
[1] = biological target: T1, PCM-F (pivalyl-CoA mutase fusion protein) (Xanthobacter versatilis, UniProt A7IQE5+A7IQE6); experiment: mutase conversion assay in crude E. coli lysate; format: biochemical; details: vitamin B12-dependent mutase; without G-protein chaperone
T1 sequence (A7IQE5 1-559): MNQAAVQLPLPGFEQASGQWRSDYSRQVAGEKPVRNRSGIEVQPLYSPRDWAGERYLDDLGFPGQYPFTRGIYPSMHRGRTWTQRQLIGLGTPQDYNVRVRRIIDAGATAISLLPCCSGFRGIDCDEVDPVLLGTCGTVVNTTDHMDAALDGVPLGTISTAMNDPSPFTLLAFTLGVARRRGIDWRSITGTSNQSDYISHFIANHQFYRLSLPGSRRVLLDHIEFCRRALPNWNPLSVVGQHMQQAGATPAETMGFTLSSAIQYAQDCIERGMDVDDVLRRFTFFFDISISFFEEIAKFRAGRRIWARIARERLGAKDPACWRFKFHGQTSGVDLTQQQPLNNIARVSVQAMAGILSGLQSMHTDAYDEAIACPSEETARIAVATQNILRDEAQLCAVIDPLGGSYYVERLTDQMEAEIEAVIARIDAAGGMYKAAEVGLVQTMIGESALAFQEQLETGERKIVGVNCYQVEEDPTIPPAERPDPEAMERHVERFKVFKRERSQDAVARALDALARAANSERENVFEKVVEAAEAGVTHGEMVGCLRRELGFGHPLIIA
T1 sequence (A7IQE6 1-148): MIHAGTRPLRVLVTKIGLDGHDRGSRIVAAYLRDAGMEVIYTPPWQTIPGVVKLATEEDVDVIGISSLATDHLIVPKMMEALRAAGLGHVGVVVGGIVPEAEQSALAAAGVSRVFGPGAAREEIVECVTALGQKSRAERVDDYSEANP

[2] = biological target: T2, Ralstonia sp. ADH (Ralstonia sp. DSMZ 6428, UniProt C0IR58); experiment: alcohol dehydrogenase assay, aldehyde reduction; format: biochemical; details: reduction of pivaldehyde to pivalcohol
T2 sequence (C0IR58 1-249): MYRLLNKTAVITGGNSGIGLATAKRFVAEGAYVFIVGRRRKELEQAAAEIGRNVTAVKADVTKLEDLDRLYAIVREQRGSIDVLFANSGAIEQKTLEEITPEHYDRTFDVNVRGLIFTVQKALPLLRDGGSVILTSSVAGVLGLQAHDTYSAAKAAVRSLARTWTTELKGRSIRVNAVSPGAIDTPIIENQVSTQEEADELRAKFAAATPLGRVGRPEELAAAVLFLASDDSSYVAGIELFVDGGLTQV

CC(C)(C)C(=O)SCCNC(=O)CCNC(=O)[C@H](O)C(C)(C)COP(=O)(O)OP(=O)(O)OC[C@H]1O[C@@H](n2cnc3c(N)ncnc32)[C@H](O)[C@@H]1OP(=O)(O)O [pivalyl-CoA]
mutase conversion assay in crude E. coli lysate [1]: significant activity in converting isovaleryl-CoA to pivalyl-CoA in crude cell lysates

CC(C)CC(=O)SCCNC(=O)CCNC(=O)[C@H](O)C(C)(C)COP(=O)(O)OP(=O)(O)OC[C@H]1O[C@@H](n2cnc3c(N)ncnc32)[C@H](O)[C@@H]1OP(=O)(O)O [isovaleryl-CoA]
mutase conversion assay in crude E. coli lysate [1]: significant activity in converting isovaleryl-CoA to pivalyl-CoA in crude cell lysates

CC(C)(C)C=O [pivaldehyde]
alcohol dehydrogenase assay, aldehyde reduction [2]: Ralstonia sp. ADH showed the highest activity toward pivaldehyde
